In patent publication US8871767B2, “2-arylimidazo[1,2-B]pyridazine, 2-phenylimidazo[1,2-A]pyridine, and 2-phenylimidazo[1,2-A]pyrazine derivatives” (Hengrui (USA) Ltd., priority 2010, dated 2014):
Read-outs that look alike come from different tables or passages of the source.

Columns and labels:
[1] = system: Hedgehog pathway activation (GLi-luciferase reporter) in Shh Light II reporter cells; test: Hedgehog pathway activation on Shh Light II reporter cells measured by luciferase activity; assay type: cell-based; conditions: Mus musculus, Shh Light II
How it was run: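 Shh Light II reporter cells carrying a hedgehog-responsive GLi-luciferase reporter were stimulated either with 500 nM SAG, a direct Smoothened agonist, or with conditioned media containing human Sonic Hedgehog (hShh). Test compounds were evaluated for blocking this pathway activation, quantified by luciferase activity. Cell viability was monitored in parallel with the Celltiter-Blue® assay.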

[2] = system: Hedgehog pathway activation on 10T1/2/Smo#3 cells (C3H10T1/2 cells transfected with human Smoothened receptor); test: Hedgehog pathway activation on 10T1/2/Smo#3 cells measured by ALP activity; assay type: cell-based; conditions: Mus musculus, C3H 10T1/2, 10T1/2/Smo#3 cells
How it was run: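 Inhibition of alkaline phosphatase induction, read fluorometrically from 4-methylumbelliferyl phosphate conversion, gave IC50 values; CellTiter-Blue tracked viability in parallel. Cells were the human Smo-transfected 10T1/2/Smo#3 pool, stimulated by 10-20% hShh conditioned medium or the Smo agonist SAG (500 nM).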

[3] = SAG activation (500 nM SAG), read-out: Shh Light II luciferase activity (SAG activation)
[4] = hShh activation, read-out: Shh (IC50, inhibition of Hedgehog pathway activation)
[5] = hShh activation, read-out: Shh Light II luciferase activity (hShh activation)
[6] = hShh activation, ALP activity, read-out: 10T1/2/Smo#3 ALP activity (hShh Activation)
[7] = measured by ALP activity, read-out: ALP (IC50, inhibition of Hedgehog pathway activation)

IC50 [1, 3] | IC50 [1, 4] | IC50 [1, 5] | IC50 [2, 6] | IC50 [2, 7] | Structure (SMILES)
300 to 3000 nM | 530 nM | < 300 nM | < 300 nM | 547 nM | CC(C)(C)C(=O)Nc1cc(-c2cn3cc(-c4ccccc4F)ncc3n2)ccc1C(F)(F)F [Example 86, N-(5-(6-(2-fluorophenyl)imidazo[1,2-a]pyrazin-2-yl)-2-(trifluoromethyl)phenyl)pivalamide]
– | 1140 nM | – | – | 446 nM | CN(C)c1cccc(-c2ccc3nc(-c4ccc(C(F)(F)F)c(NC(=O)C(C)(C)C)c4)cn3n2)c1 [Example 256, N-(5-(6-(3-(dimethylamino)phenyl)imidazo[1,2-b]pyridazin-2-yl)-2-(trifluoromethyl)phenyl)pivalamide]
– | 312 nM | – | – | 343 nM | CCOC1CCN(c2ccc3nc(-c4ccc(C(F)(F)F)c(NC(=O)C(C)(C)C)c4)cn3n2)CC1 [Example 367, N-(5-(6-(4-ethoxypiperidin-1-yl)imidazo[1,2-b]pyridazin-2-yl)-2-(trifluoromethyl)phenyl)pivalamide]
– | 589 nM | – | – | 155 nM | Cc1ccc(-c2cn3nc(-c4cccnc4C(F)(F)F)ccc3n2)cc1NC(=O)C1CCCN1 (stereo not drawn) [Example 645, N-(2-methyl-5-(6-(2-(trifluoromethyl)pyridin-3-yl)imidazo[1,2-b]pyridazin-2-yl)phenyl)pyrrolidine-2-carboxamide]
< 300 nM | 322 nM | < 300 nM | < 300 nM | 337 nM | Cc1ccc(-c2cn3nc(-c4cc(C#N)ccc4C)ccc3n2)cc1NC(=O)C(C)(C)C [Example 450, N-(5-(6-(5-cyano-2-methylphenyl)imidazo[1,2-b]pyridazin-2-yl)-2-methylphenyl)pivalamide]
– | 255 nM | – | – | 181 nM | Cc1ccc(-c2cn3nc(-c4ccc(C(N)=O)cc4F)ccc3n2)cc1NC(=O)C(C)(C)C [compound 541]
– | 289 nM | – | – | 325 nM | CC(C)(C)C(=O)Nc1cc(-c2cn3nc(-c4cc(F)ccc4C(F)(F)F)ccc3n2)ccc1C(F)(F)F [Example 291, N-(5-(6-(5-fluoro-2-(trifluoromethyl)phenyl)imidazo[1,2-b]pyridazin-2-yl)-2-(trifluoromethyl)phenyl)pivalamide]
300 to 3000 nM | 778 nM | 300 to 3000 nM | 300 to 3000 nM | 1380 nM | CC(C)(C)C(=O)Nc1cc(-c2cn3nc(-c4cncc5ccccc45)ccc3n2)ccc1C(F)(F)F [Example 385, N-(5-(6-(isoquinolin-4-yl)imidazo[1,2-b]pyridazin-2-yl)-2-(trifluoromethyl)phenyl)pivalamide]
– | 710 nM | – | – | 423 nM | CC(C)(C)C(=O)Nc1cc(-c2cn3nc(-c4ccncc4)ccc3n2)ccc1C(F)(F)F [Example 169, N-(5-(6-(pyridin-4-yl)imidazo[1,2-b]pyridazin-2-yl)-2-(trifluoromethyl)phenyl)pivalamide]
3000 to 30000 nM | 3880 nM | 3000 to 30000 nM | 3000 to 30000 nM | 5730 nM | CC(C)(C)C(=O)Nc1cc(-c2cn3nc(C(N)=O)ccc3n2)ccc1C(F)(F)F [Example 180, 2-(3-pivalamido-4-(trifluoromethyl)phenyl)imidazo[1,2-b]pyridazine-6-carboxamide]
– | 24 nM | – | – | 315 nM | O=C(Nc1cc(-c2cn3nc(-c4cccnc4C(F)(F)F)ccc3n2)ccc1Cl)C1CCCC1 [Example 671, N-(2-chloro-5-(6-(2-(trifluoromethyl)pyridin-3-yl)imidazo[1,2-b]pyridazin-2-yl)phenyl)cyclopentanecarboxamide]
– | 221 nM | – | – | 1320 nM | Cc1c(-c2ccccn2)nn2cc(-c3ccc(C(F)(F)F)c(NC(=O)C(C)(C)C)c3)nc2c1C [Example 202, N-(5-(7,8-dimethyl-6-(pyridin-2-yl)-imidazo[1,2-b]pyridazin-2-yl)-2-(trifluoromethyl)phenyl)pivalamide]
– | 1560 nM | – | – | 265 nM | CCOC(=O)CCCCCCOc1cccc(-c2ccc3nc(-c4ccc(C)c(NC(=O)C(C)(C)C)c4)cn3n2)c1C(F)(F)F [Example 423, ethyl 7-(3-(2-(4-methyl-3-pivalamidophenyl)imidazo[1,2-b]pyridazin-6-yl)-2-(trifluoromethyl)phenoxy)heptanoate]
300 to 3000 nM | 167 nM | 3000 to 30000 nM | 300 to 3000 nM | 1280 nM | Cc1ccc(-c2cn3nc(-c4cccnc4C(F)(F)F)ccc3n2)cc1NC(=O)CCCCCCC(=O)NO [Example 429, N^1-hydroxy-N^8-(2-methyl-5-(6-(2-(trifluoromethyl)pyridin-3-yl)imidazo[1,2-b]pyridazin-2-yl)phenyl)octanediamide]
– | 368 nM | – | – | 158 nM | CCc1ccc(-c2cn3nc(-c4cccnc4C(F)(F)F)ccc3n2)cc1NC(=O)N1CC(F)(F)C1 [Example 695, N-(2-ethyl-5-(6-(2-(trifluoromethyl)pyridin-3-yl)imidazo[1,2-b]pyridazin-2-yl)phenyl)-3,3-difluoroazetidine-1-carboxamide]
– | > 10000 nM | – | – | 5260 nM | CCOc1ccc2nc(-c3ccc(C(F)(F)F)c(NC(=O)C4CCCCC4)c3)cn2n1 [Example 190, N-(5-(6-ethoxyimidazo[1,2-b]pyridazin-2-yl)-2-(trifluoromethyl)phenyl)cyclohexanecarboxamide]
3000 to 30000 nM | – | 3000 to 30000 nM | 300 to 3000 nM | 442 nM | CC(C)(C)C(=O)Nc1cc(-c2cn3nc(N4CCC(O)CC4)ccc3n2)ccc1C1CC1 [Example 273, N-(2-cyclopropyl-5-(6-(4-hydroxypiperidin-1-yl)imidazo[1,2-b]pyridazin-2-yl)phenyl)pivalamide]

Further lines, the compound ahead of its results:

Structure (SMILES) | IC50 [1, 3] | IC50 [1, 4] | IC50 [1, 5] | IC50 [2, 6] | IC50 [2, 7]
CCOc1ccc2nc(-c3ccc(C(F)(F)F)c(NC(=O)C(C)(C)C)c3)cn2n1 [Example 136, N-(5-(6-ethoxyimidazo[1,2-b]pyridazin-2-yl)-2-(trifluoromethyl)phenyl)pivalamide] | – | 158 nM | – | – | 452 nM
CC(C)(C)C(=O)Nc1cc(-c2cn3nc(-c4ccc(F)cc4F)ccc3n2)ccc1C(F)(F)F [Example 183, N-(5-(6-(2,4-difluorophenyl)imidazo[1,2-b]pyridazin-2-yl)-2-(trifluoromethyl)phenyl)pivalamide] | – | 327 nM | – | – | 995 nM
CC(C)Oc1ccc(F)c(-c2ccc3nc(-c4ccc(C(F)(F)F)c(NC(=O)C(C)(C)C)c4)cn3n2)c1 [Example 252, N-(5-(6-(2-fluoro-5-isopropoxyphenyl)imidazo[1,2-b]pyridazin-2-yl)-2-(trifluoromethyl)phenyl)pivalamide] | – | 722 nM | – | – | 392 nM
Cc1ncccc1-c1ccc2nc(-c3ccc(C(F)(F)F)c(NC(=O)C(C)(C)C)c3)cn2n1 [Example 293, N-(5-(6-(2-methylpyridin-3-yl)imidazo[1,2-b]pyridazin-2-yl)-2-(trifluoromethyl)phenyl)pivalamide] | – | 310 nM | – | – | 221 nM
Cc1ccc(-c2cn3nc(-c4csc(N5CCOCC5)n4)ccc3n2)cc1NC(=O)C(C)(C)C [Example 448, N-(2-methyl-5-(6-(2-morpholinothiazol-4-yl)imidazo[1,2-b]pyridazin-2-yl)phenyl)pivalamide] | – | 1280 nM | – | – | 643 nM
CC(CC(=O)Nc1cc(-c2cn3nc(-c4cccnc4C(F)(F)F)ccc3n2)ccc1Cl)C(F)(F)F (stereo not drawn) [Example 666, N-(2-chloro-5-(6-(2-(trifluoromethyl)pyridin-3-yl)imidazo[1,2-b]pyridazin-2-yl)phenyl)-4,4,4-trifluoro-3-methylbutanamide] | – | 64 nM | – | – | 527 nM
COCCNC1CCN(c2ccc3nc(-c4ccc(C(F)(F)F)c(NC(=O)C(C)(C)C)c4)cn3n2)CC1 [Example 368, N-(5-(6-(4-(2-methoxyethylamino)piperidin-1-yl)imidazo[1,2-b]pyridazin-2-yl)-2-(trifluoromethyl)phenyl)pivalamide] | – | 118 nM | – | – | 321 nM
Cc1cc(Cl)c(-c2cn3nc(N4CC[C@@H](O)C4)ccc3n2)cc1NC(=O)C(C)(C)C [Example 640, (R)—N-(4-chloro-5-(6-(3-hydroxypyrrolidin-1-yl)imidazo[1,2-b]pyridazin-2-yl)-2-methylphenyl)pivalamide] | – | 107 nM | – | – | 138 nM
CC(C)(C)C(=O)Nc1cc(-c2cn3nc(NC4CCCC4)ccc3n2)ccc1C(F)(F)F [Example 301, N-(5-(6-(cyclopentylamino)imidazo[1,2-b]pyridazin-2-yl)-2-(trifluoromethyl)phenyl)pivalamide] | – | 406 nM | – | – | 1060 nM
Cc1ccc(-c2cn3nc(-c4ccc(S(N)(=O)=O)cc4C(F)(F)F)ccc3n2)cc1NC(=O)C(C)(C)C [compound 535] | – | 56 nM | – | – | 139 nM
Cc1ccc(-c2cn3nc(-c4ccc(C(=O)O)cc4Cl)ccc3n2)cc1NC(=O)C(C)(C)C [compound 540] | – | 447 nM | – | – | 891 nM
O=C(Nc1cc(-c2cn3nc(-c4cccnc4C(F)(F)F)ccc3n2)ccc1Cl)NC1CC1 [Example 654, 1-(2-chloro-5-(6-(2-(trifluoromethyl)pyridin-3-yl)imidazo[1,2-b]pyridazin-2-yl)phenyl)-3-cyclopropylurea] | – | 228 nM | – | – | 764 nM
